# In patent publication US12338270B2, “Pharmaceutical composition comprising polypeptide” (D&D Pharmatech Inc., priority 2018, dated 2025):
# Non-standard residues stand in square brackets, D forms with d. No end group written: not given here. tri‑branched mPEG‑MAL 50 kDa = tri-branched maleimide-activated monomethoxy PEG, 50 kDa; Aib = CC(C)(N)C(=O)O
# Assays:
# Format in all cases: in vivo
# [1] = test system: obesity animal model (C57BL/6 mice, 60% high-fat diet); assay: final body weight with different dose and dosing frequency in obesity model (Experimental Example 5); conditions: FIG. 4
# Experimental: First, an obesity animal model was prepared by feeding a 60% high-fat diet to normal C57BL/6 mice (approximately 6 weeks old) for approximately 24 weeks, and increasing the body weights of the mice to approximately 50 g in average. After 2 weeks, the final body weights of the mice were measured.
# [2] = test system: obesity animal model (C57BL/6 mice, 60% high-fat diet); assay: blood glucose in obesity model, Examples 2 and 6 (Experimental Example 6); conditions: 20 nmol/kg s.c. once every other day for 2 weeks; FIG. 5
# Experimental: To check a preventing or therapeutic effect of the conjugates of Examples 2 and 6, which had different amino acid sequences, on obesity or diabetes, an animal model of obesity was prepared by feeding a 60% high-fat diet to normal C57BL/6 mice (approximately 6 weeks old) for approximately 24 weeks, and increasing the body weights of the mice to approximately 50 g in average. Thereafter, each of the conjugates of Examples 2 or 6 was administered by subcutaneous injection at a dose of 20 nmol/kg once every other day for 2 weeks. As the control, PBS was administered instead of the conjugates of Examples. For 2 weeks when the conjugates of Examples 2 or 6 were administered, changes in blood glucose with time were measured. Also, to perform an intraperitoneal glucose tolerance test (ipGTT), 2 g/kg of glucose was administered intraperitoneally after the 2-week administration of the drug, and changes in blood glucose with the elapse of time (0, 15, 30, 60, 90, and 120 minutes) were measured.
# [3] = test system: obesity animal model (C57BL/6 mice, 60% high-fat diet); assay: body weight, food intake and blood glucose in high-fat diet obesity animal model (Experimental Example 2); conditions: for Blood glucose / Body weight / Food intake: 20 nmol/kg s.c. once every other day; for Food intake: cumulative
# Experimental: First, an obesity animal model was prepared by feeding a 60% high-fat diet to normal C57BL/6 mice (approximately 6 weeks old) for approximately 24 weeks, and increasing the body weights of the mice to approximately 50 g on average. Thereafter, the conjugate of Example 2 was administered by subcutaneous injection at a dose of 20 nmol/kg once every other day for 2 weeks. […] For 2 weeks when the drug was administered, the food intake, the blood glucose, and the body weights were measured once every other day at given points of time.
# In this case, the body weights and the blood glucose were expressed in the percentage (%) on the basis of 100% before the administration (Day 0).
# [4] = 20 nmol/kg s.c. once every other day for 2 weeks
# [5] = day 0 (before administration = 100%)
substance,measurement,setting,value
Example 2: Conjugate of polypeptide H(Aib)QGTFTSDYSKYLDEQAAKEFVQWLMNTC (SEQ ID NO. 2) and tri-branched mPEG-MAL (MW: 50 kDa) (H[Aib]QGTFTSDYSKYLDEQAAKEFVQWLMNTC(tri‑branched mPEG‑MAL 50 kDa); lactam (positions not given here); not fully specified (bridges); printed as H(Aib)QGTFTSDYSKYLDEQAAKEFVQWLMNTC),effect on body weight loss,[1]; [4],significant effect on the body weight loss
same,effect on body weight loss with extended interval,[1]; 40 nmol/kg s.c. once a week for 2 weeks,the same effect on the body weight loss
same,dose dependence of body weight loss,[1]; 20 vs 40 nmol/kg s.c. once every other day for 2 weeks,dose-dependent response
same,level of blood glucose vs control,[2],a level of blood glucose was lowered
same,level of blood glucose reduced compared to before the administration,[3]; [4],approximately 80%
same,Blood glucose,[3]; [5],100%
same,Body weight,[3]; [5],100%
same,Food intake,[3]; day 0,0 g
same,Blood glucose,"[3]; day 2, % of Day 0",87%
same,Body weight,"[3]; day 2, % of Day 0",97%
same,Food intake,[3]; day 2,4 g
same,Blood glucose,"[3]; day 4, % of Day 0",75%
same,Body weight,"[3]; day 4, % of Day 0",94%
same,Food intake,[3]; day 4,8 g
same,Blood glucose,"[3]; day 6, % of Day 0",48%
same,Body weight,"[3]; day 6, % of Day 0",89%
same,Food intake,[3]; day 6,11 g
same,Blood glucose,"[3]; day 8, % of Day 0",32%
same,Body weight,"[3]; day 8, % of Day 0",82%
same,Food intake,[3]; day 8,13 g
same,Blood glucose,"[3]; day 10, % of Day 0",35%
same,Body weight,"[3]; day 10, % of Day 0",74%
same,Food intake,[3]; day 10,15 g
same,Blood glucose,"[3]; day 12, % of Day 0",32%
same,Body weight,"[3]; day 12, % of Day 0",68%
same,Food intake,[3]; day 12,17 g
same,Blood glucose,"[3]; day 14, % of Day 0",18%
same,Body weight,"[3]; day 14, % of Day 0",61%
